Measurements as given in PubChem BioAssay (NCI).
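Five concentrations, 48 hours, 96-well plates. GI50: concentration for 50% inhibition of growth. Definition used: TGI = concentration required for complete inhibition of growth.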

How the values were obtained:
Assay in all cases: NCI anticancer screen, dose series, 48 h
HOP-62 NSCLC = test system: HOP-62 NSCLC
PC-3 prostate = test system: PC-3 prostate
OVCAR-8 ovarian = test system: OVCAR-8 ovarian
ACHN renal = test system: ACHN renal
NCI/ADR-RES ovarian = test system: NCI/ADR-RES ovarian
HCT-15 colon = test system: HCT-15 colon
SR leukemia = test system: SR leukemia
786-0 renal = test system: 786-0 renal
RXF 393 renal = test system: RXF 393 renal
A498 renal = test system: A498 renal
EKVX NSCLC = test system: EKVX NSCLC
SNB-75 CNS = test system: SNB-75 CNS
NCI-H226 lung = test system: NCI-H226 lung
OVCAR-5 ovarian = test system: OVCAR-5 ovarian
TK-10 renal = test system: TK-10 renal
K-562 leukemia = test system: K-562 leukemia
CCRF-CEM leukemia = test system: CCRF-CEM leukemia
HT29 colon = test system: HT29 colon
SN12C renal = test system: SN12C renal
UACC-257 melanoma = test system: UACC-257 melanoma
T-47D breast = test system: T-47D breast
NCI-H522 lung = test system: NCI-H522 lung
LOX IMVI melanoma = test system: LOX IMVI melanoma
SF-268 CNS = test system: SF-268 CNS
M14 melanoma = test system: M14 melanoma
UACC-62 melanoma = test system: UACC-62 melanoma
U251 CNS = test system: U251 CNS
RPMI-8226 leukemia = test system: RPMI-8226 leukemia
SK-OV-3 ovarian = test system: SK-OV-3 ovarian
MDA-MB-435 = test system: MDA-MB-435
IGROV1 ovarian = test system: IGROV1 ovarian
SW-620 colon = test system: SW-620 colon
DU-145 prostate = test system: DU-145 prostate
HOP-92 NSCLC = test system: HOP-92 NSCLC
MALME-3M melanoma = test system: MALME-3M melanoma
HL-60(TB) leukemia = test system: HL-60(TB) leukemia
SK-MEL-2 melanoma = test system: SK-MEL-2 melanoma
SF-295 CNS = test system: SF-295 CNS
HCC-2998 colon = test system: HCC-2998 colon
NCI-H460 lung = test system: NCI-H460 lung
OVCAR-4 ovarian = test system: OVCAR-4 ovarian
A549 NSCLC = test system: A549 NSCLC
SK-MEL-28 melanoma = test system: SK-MEL-28 melanoma
SF-539 CNS = test system: SF-539 CNS
UO-31 renal = test system: UO-31 renal
OVCAR-3 ovarian = test system: OVCAR-3 ovarian
MOLT-4 leukemia = test system: MOLT-4 leukemia
SNB-19 CNS = test system: SNB-19 CNS
SK-MEL-5 melanoma = test system: SK-MEL-5 melanoma
HS 578T breast = test system: HS 578T breast
MCF7 breast = test system: MCF7 breast
CAKI-1 renal = test system: CAKI-1 renal
NCI-H23 lung = test system: NCI-H23 lung
MDA-MB-231 breast = test system: MDA-MB-231 breast
COLO 205 colon = test system: COLO 205 colon
KM12 colon = test system: KM12 colon
BT-549 breast = test system: BT-549 breast
HCT-116 colon = test system: HCT-116 colon

Work on `CCOc1ccc(Cc2nccc3cc(OCC)c(OCC)cc23)cc1OCC` yielded a GI50 (HOP-62 NSCLC) of 3.01 µM, a TGI (HOP-62 NSCLC) of 20.9 µM and a GI50 (PC-3 prostate) of 4.41 µM. It also gave a TGI (PC-3 prostate) of 33.4 µM, a GI50 (OVCAR-8 ovarian) of 5.33 µM and a TGI (OVCAR-8 ovarian) of 31.1 µM. It also gave a GI50 (ACHN renal) of 7.54 µM, a TGI (ACHN renal) of 45.1 µM and a GI50 (NCI/ADR-RES ovarian) of 4.87 µM. The TGI (NCI/ADR-RES ovarian) was 39.6 µM, the GI50 (HCT-15 colon) was 10.2 µM and the TGI (HCT-15 colon) was 29.8 µM. For the same compound, the GI50 (SR leukemia) was 12.6 µM, the TGI (SR leukemia) was 56.2 µM and the GI50 (786-0 renal) was 9.57 µM. The TGI (786-0 renal) was 40.4 µM, the GI50 (RXF 393 renal) was 10.4 µM and the TGI (RXF 393 renal) was 23.1 µM. For the same compound, the GI50 (A498 renal) was 0.763 µM, the TGI (A498 renal) was 19.9 µM and the GI50 (EKVX NSCLC) was 3.64 µM. For the same compound, the TGI (EKVX NSCLC) was 27.1 µM, the GI50 (SNB-75 CNS) was 13.4 µM and the TGI (SNB-75 CNS) was 41.9 µM. The GI50 (NCI-H226 lung) was 6 µM, the TGI (NCI-H226 lung) was 23.8 µM and the GI50 (OVCAR-5 ovarian) was 4.58 µM. For the same compound, the TGI (OVCAR-5 ovarian) was 22 µM, the GI50 (TK-10 renal) was 11 µM and the TGI (TK-10 renal) was 32.5 µM. It also gave a GI50 (K-562 leukemia) of 3.54 µM, a TGI (K-562 leukemia) of 49.9 µM and a GI50 (CCRF-CEM leukemia) of 8.45 µM. For the same compound, the TGI (CCRF-CEM leukemia) was 65.1 µM, the GI50 (HT29 colon) was 0.863 µM and the TGI (HT29 colon) was 12.6 µM. It also gave a GI50 (SN12C renal) of 4.08 µM, a TGI (SN12C renal) of 22.3 µM and a GI50 (UACC-257 melanoma) of 3.34 µM. For the same compound, the TGI (UACC-257 melanoma) was 14.6 µM, the GI50 (T-47D breast) was 1.47 µM and the TGI (T-47D breast) was 15 µM. It also gave a GI50 (NCI-H522 lung) of 2.09 µM, a TGI (NCI-H522 lung) of 15 µM and a GI50 (LOX IMVI melanoma) of 2.9 µM. It also gave a TGI (LOX IMVI melanoma) of 17 µM, a GI50 (SF-268 CNS) of 11.3 µM and a TGI (SF-268 CNS) of 36.7 µM. For the same compound, the GI50 (M14 melanoma) was 9.41 µM, the TGI (M14 melanoma) was 23.5 µM and the GI50 (UACC-62 melanoma) was 2.72 µM. The TGI (UACC-62 melanoma) was 16.5 µM, the GI50 (U251 CNS) was 7.73 µM and the TGI (U251 CNS) was 21.9 µM. The GI50 (RPMI-8226 leukemia) was 2.01 µM, the TGI (RPMI-8226 leukemia) was 22.4 µM and the GI50 (SK-OV-3 ovarian) was 16.3 µM. It also gave a TGI (SK-OV-3 ovarian) of 58.2 µM, a GI50 (MDA-MB-435) of 5.78 µM and a TGI (MDA-MB-435) of 23.1 µM. It also gave a GI50 (IGROV1 ovarian) of 2.39 µM, a TGI (IGROV1 ovarian) of 12.7 µM and a GI50 (SW-620 colon) of 3.68 µM. The TGI (SW-620 colon) was 24.1 µM, the GI50 (DU-145 prostate) was 12.9 µM and the TGI (DU-145 prostate) was 31.8 µM. For the same compound, the GI50 (HOP-92 NSCLC) was 0.29 µM, the TGI (HOP-92 NSCLC) was 8.94 µM and the GI50 (MALME-3M melanoma) was 8.76 µM. It also gave a TGI (MALME-3M melanoma) of 26 µM, a GI50 (HL-60(TB) leukemia) of 3.17 µM and a TGI (HL-60(TB) leukemia) of 18.2 µM. For the same compound, the GI50 (SK-MEL-2 melanoma) was 11.7 µM, the TGI (SK-MEL-2 melanoma) was 26.1 µM and the GI50 (SF-295 CNS) was 0.688 µM. For the same compound, the TGI (SF-295 CNS) was 15.8 µM, the GI50 (HCC-2998 colon) was 5.53 µM and the TGI (HCC-2998 colon) was 21.3 µM. The GI50 (NCI-H460 lung) was 3.2 µM, the TGI (NCI-H460 lung) was 21.8 µM and the GI50 (OVCAR-4 ovarian) was 9.74 µM. It also gave a TGI (OVCAR-4 ovarian) of 26 µM, a GI50 (A549 NSCLC) of 5.7 µM and a TGI (A549 NSCLC) of 27.8 µM. The GI50 (SK-MEL-28 melanoma) was 14.8 µM, the TGI (SK-MEL-28 melanoma) was 28.9 µM and the GI50 (SF-539 CNS) was 5.87 µM. For the same compound, the TGI (SF-539 CNS) was 20.7 µM, the GI50 (UO-31 renal) was 2.87 µM and the TGI (UO-31 renal) was 32.4 µM. The GI50 (OVCAR-3 ovarian) was 10.5 µM, the TGI (OVCAR-3 ovarian) was 23.6 µM and the GI50 (MOLT-4 leukemia) was 5.83 µM. It also gave a TGI (MOLT-4 leukemia) of 34.2 µM, a GI50 (SNB-19 CNS) of 10.7 µM and a TGI (SNB-19 CNS) of 31.8 µM. It also gave a GI50 (SK-MEL-5 melanoma) of 1.61 µM, a TGI (SK-MEL-5 melanoma) of 4.19 µM and a GI50 (HS 578T breast) of 13.2 µM. For the same compound, the TGI (HS 578T breast) was 57.7 µM, the GI50 (MCF7 breast) was 9.94 µM and the TGI (MCF7 breast) was 23.8 µM. For the same compound, the GI50 (CAKI-1 renal) was 4.53 µM, the TGI (CAKI-1 renal) was 41 µM and the GI50 (NCI-H23 lung) was 1.93 µM. It also gave a TGI (NCI-H23 lung) of 21.6 µM, a GI50 (MDA-MB-231 breast) of 4.02 µM and a TGI (MDA-MB-231 breast) of 25.9 µM. The GI50 (COLO 205 colon) was 4.28 µM, the TGI (COLO 205 colon) was 19 µM and the GI50 (KM12 colon) was 4.85 µM. The TGI (KM12 colon) was 24.5 µM, the GI50 (BT-549 breast) was 5.16 µM and the TGI (BT-549 breast) was 19.1 µM. For the same compound, the GI50 (HCT-116 colon) was 1.52 µM and the TGI (HCT-116 colon) was 13.4 µM.
